Patent US20230293535A1, “ERBB/BTK INHIBITORS” (Dizal (Jiangsu) Pharmaceutical Co., Ltd., priority 2018, published 2023)
pIC50: −log10 of the molar value. Where a name gives a salt, the structure may show the parent alone. Read-outs that look alike come from different tables or passages of the source.

Assays:
Type in all cases: cell-based
[1] = biological target: T1, human EGFR exon 20 H773_V774insNPH (Homo sapiens, UniProt P00533, INS773NPH); test: EGFR Exon20 NPH insertion cellular phosphorylation inhibition (MSD pEGFR Y1068/total EGFR); details: Ba/F3 EGFR NPH ins cells, 4 h compound, p-EGFR(Y1068)/total EGFR;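 also: IL3-independent Ba/F3 cells with constitutively phosphorylated EGFR, compound exposure at 37 °C under 5% CO2, electrochemiluminescent MSD measurement of the p-EGFR to total EGFR ratio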
T1 construct: host or cells: Ba/F3
T1 sequence (P00533 with tags, fused parts or gaps INS773NPH): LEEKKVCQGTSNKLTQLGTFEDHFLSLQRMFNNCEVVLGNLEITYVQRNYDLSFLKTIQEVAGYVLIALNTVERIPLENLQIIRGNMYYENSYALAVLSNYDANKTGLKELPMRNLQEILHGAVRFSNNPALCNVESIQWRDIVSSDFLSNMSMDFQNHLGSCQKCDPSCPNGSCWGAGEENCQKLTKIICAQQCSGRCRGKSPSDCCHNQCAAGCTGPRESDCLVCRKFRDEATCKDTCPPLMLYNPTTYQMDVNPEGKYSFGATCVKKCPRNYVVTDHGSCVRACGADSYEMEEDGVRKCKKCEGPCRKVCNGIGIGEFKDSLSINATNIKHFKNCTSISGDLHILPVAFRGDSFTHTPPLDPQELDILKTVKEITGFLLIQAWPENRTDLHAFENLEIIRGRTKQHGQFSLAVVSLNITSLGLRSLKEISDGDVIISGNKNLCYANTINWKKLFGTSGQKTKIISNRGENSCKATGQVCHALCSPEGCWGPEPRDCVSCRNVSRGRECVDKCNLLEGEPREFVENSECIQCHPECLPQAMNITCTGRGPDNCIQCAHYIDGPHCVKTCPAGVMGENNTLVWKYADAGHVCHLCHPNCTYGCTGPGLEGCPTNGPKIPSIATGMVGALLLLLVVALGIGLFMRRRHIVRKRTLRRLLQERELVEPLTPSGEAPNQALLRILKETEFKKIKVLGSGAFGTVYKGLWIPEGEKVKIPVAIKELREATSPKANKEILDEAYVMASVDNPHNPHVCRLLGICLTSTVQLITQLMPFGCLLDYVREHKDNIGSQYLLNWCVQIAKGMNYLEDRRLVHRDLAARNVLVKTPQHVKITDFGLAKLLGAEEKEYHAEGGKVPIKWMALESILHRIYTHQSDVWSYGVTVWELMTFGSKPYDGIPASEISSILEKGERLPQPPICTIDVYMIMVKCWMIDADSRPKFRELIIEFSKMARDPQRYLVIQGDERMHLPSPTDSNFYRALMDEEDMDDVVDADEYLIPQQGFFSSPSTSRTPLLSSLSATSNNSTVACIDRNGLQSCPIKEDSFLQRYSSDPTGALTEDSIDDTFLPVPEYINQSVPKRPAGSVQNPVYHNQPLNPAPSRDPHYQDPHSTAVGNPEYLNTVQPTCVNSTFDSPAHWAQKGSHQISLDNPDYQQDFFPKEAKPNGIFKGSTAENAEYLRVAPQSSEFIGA
Description: One day before the test, WT or mutant cells were seeded in 96 well plates at appropriate concentrations with corresponding growth media supplemented with 1% FBS, and incubated overnight. The next day, tested compounds at a series of concentrations were added into each individual well of the plates, and the plates were incubated for 4 h at 37° C. with 5% CO2.
The EGFR (Y1068) phosphorylation level (activity) of cells in each well were then measured with MSD kit named “MULTI-SPOT®96 4-Spot HB Prototype EGFR Triplex [sequence]: pEGFR(Tyr1068),pEGFR(Tyr1173), Total EGFR” according to the manufacturer’s instruction (MESO SCALE DISCOVERY, Cat# N45ZB-1). The assay is an electrochemiluminescent method for determining both phosphorylated and total EGFR of cells with an MSD SECTOR® Imager and the ratio of p-EGFR/total EGFR can be generated by the machine.

[2] = biological target: T2, human EGFR exon 20 V769_D770insASV (Homo sapiens, UniProt P00533, INS769ASV); test: EGFR Exon20 ASV insertion cellular phosphorylation inhibition (MSD pEGFR Y1068/total EGFR); details: Ba/F3 EGFR ASV ins cells, 4 h compound, p-EGFR(Y1068)/total EGFR;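 also: electrochemiluminescent readout on an MSD SECTOR Imager, IL3-independent transduced cells in medium with 1% FBS, compound concentration series at 37 °C and 5% CO2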
T2 construct: expressed in transfected cells; host or cells: Ba/F3 (DSMZ ACC-300), lentiviral transduction, puromycin selection, IL3 depletion

EGFR L858R&T790M = biological target: T3, EGFR L858R&T790M (Homo sapiens, UniProt P00533, L858R/T790M); test: EGFR L858R and T790M cellular phosphorylation inhibition in NCI-H1975 (MSD); details: NCI-H1975 cells, 4 h compound, p-EGFR(Y1068)/total EGFR; read-out: EGFR L858R and T790M mutation IC50;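 also: phosphorylated and total EGFR detected by electrochemiluminescence, cells exposed to compound in medium containing 1% FBS at 37 °C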
T3 construct: host or cells: NCI-H1975
T3 sequence (P00533 25-1210 T790M/L858R): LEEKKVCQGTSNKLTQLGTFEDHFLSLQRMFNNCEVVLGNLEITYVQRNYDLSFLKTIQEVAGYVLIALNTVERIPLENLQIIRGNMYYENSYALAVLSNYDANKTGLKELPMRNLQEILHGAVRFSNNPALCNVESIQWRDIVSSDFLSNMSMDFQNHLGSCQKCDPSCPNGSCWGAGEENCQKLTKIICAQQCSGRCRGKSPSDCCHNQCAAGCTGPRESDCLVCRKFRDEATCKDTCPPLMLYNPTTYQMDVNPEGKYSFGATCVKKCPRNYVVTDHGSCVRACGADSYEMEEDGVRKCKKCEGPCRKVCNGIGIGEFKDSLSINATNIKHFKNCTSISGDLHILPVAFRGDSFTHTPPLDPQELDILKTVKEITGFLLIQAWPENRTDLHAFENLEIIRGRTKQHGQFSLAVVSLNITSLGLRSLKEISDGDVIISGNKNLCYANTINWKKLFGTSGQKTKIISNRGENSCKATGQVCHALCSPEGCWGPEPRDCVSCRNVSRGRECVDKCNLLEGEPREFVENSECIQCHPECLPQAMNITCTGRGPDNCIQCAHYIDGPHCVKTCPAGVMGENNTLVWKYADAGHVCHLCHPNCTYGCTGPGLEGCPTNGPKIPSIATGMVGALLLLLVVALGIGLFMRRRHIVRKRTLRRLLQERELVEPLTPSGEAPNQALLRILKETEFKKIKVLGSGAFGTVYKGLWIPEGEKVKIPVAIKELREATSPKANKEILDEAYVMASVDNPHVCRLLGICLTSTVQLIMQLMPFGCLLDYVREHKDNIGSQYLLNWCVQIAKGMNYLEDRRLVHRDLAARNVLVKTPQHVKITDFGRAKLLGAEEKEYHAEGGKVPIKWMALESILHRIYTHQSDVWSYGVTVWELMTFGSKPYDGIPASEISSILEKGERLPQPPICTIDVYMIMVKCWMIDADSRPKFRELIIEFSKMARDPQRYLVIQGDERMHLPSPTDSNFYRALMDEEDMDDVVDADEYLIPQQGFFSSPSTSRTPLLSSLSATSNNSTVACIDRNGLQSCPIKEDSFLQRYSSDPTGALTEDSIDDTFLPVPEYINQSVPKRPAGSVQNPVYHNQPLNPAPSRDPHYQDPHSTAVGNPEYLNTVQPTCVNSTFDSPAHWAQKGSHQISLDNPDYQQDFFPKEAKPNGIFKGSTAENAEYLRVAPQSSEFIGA

[3] = biological target: T4, human Her2 exon 20 insertion mutation YVMA (Homo sapiens, UniProt P04626, INS775YVMA); test: Her2 Exon 20 YVMA insertion cellular phosphorylation inhibition (MSD p-Her2 Y1248/total Her2); details: Her2 YVMAins cells, 4 h compound;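 also: lentivirally transduced NIH-3T3 cells in 1% FBS medium, electrochemiluminescent MSD read-out, graded compound concentrations at 37 °C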
T4 construct: expressed in transfected cells; host or cells: NIH-3T3, lentiviral transduction, puromycin selection
T4 sequence (P04626 with tags, fused parts or gaps INS775YVMA): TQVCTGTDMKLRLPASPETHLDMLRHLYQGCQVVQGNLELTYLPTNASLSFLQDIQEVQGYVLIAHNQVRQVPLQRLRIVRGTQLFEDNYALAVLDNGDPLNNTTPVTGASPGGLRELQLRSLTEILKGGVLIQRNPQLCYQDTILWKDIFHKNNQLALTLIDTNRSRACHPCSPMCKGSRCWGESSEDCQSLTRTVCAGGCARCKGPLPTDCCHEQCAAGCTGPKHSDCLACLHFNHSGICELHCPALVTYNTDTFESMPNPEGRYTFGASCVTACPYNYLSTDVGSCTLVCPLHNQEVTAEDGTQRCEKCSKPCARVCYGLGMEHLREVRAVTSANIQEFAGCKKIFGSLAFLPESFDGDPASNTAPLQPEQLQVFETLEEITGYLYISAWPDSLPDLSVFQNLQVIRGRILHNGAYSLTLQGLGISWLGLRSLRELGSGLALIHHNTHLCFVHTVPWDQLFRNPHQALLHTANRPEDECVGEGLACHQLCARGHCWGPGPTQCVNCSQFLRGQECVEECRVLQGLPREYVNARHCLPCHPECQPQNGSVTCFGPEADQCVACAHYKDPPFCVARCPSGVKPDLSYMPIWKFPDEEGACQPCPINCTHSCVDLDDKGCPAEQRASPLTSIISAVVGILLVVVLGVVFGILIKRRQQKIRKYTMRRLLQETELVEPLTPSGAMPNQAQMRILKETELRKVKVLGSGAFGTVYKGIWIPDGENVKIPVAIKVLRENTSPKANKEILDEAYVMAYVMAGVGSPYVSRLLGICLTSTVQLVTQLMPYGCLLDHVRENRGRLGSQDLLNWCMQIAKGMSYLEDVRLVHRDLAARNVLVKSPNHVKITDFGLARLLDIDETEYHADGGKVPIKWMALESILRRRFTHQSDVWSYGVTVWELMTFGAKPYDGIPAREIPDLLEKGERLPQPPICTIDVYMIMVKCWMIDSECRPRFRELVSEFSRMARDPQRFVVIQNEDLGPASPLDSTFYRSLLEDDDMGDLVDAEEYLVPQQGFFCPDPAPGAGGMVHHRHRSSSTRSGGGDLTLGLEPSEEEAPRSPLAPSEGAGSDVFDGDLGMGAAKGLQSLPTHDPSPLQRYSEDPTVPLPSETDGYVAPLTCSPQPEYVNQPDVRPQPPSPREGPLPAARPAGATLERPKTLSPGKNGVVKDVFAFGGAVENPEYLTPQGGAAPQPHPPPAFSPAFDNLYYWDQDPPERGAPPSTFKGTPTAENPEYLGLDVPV

WT EGFR = biological target: T5, WT EGFR (Homo sapiens, UniProt P00533); test: WT EGFR cellular phosphorylation inhibition in A-431 (hEGF stimulated, MSD); details: A431 cells, 4 h compound, then 100 ng/ml hEGF 10 min;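 also: electrochemiluminescence read-out of EGFR Tyr1068 phosphorylation expressed as ratio to total EGFR, cells kept in medium with 1% FBS, compounds tested as a concentration series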
T5 construct: host or cells: A-431
T5 sequence (P00533 25-1210): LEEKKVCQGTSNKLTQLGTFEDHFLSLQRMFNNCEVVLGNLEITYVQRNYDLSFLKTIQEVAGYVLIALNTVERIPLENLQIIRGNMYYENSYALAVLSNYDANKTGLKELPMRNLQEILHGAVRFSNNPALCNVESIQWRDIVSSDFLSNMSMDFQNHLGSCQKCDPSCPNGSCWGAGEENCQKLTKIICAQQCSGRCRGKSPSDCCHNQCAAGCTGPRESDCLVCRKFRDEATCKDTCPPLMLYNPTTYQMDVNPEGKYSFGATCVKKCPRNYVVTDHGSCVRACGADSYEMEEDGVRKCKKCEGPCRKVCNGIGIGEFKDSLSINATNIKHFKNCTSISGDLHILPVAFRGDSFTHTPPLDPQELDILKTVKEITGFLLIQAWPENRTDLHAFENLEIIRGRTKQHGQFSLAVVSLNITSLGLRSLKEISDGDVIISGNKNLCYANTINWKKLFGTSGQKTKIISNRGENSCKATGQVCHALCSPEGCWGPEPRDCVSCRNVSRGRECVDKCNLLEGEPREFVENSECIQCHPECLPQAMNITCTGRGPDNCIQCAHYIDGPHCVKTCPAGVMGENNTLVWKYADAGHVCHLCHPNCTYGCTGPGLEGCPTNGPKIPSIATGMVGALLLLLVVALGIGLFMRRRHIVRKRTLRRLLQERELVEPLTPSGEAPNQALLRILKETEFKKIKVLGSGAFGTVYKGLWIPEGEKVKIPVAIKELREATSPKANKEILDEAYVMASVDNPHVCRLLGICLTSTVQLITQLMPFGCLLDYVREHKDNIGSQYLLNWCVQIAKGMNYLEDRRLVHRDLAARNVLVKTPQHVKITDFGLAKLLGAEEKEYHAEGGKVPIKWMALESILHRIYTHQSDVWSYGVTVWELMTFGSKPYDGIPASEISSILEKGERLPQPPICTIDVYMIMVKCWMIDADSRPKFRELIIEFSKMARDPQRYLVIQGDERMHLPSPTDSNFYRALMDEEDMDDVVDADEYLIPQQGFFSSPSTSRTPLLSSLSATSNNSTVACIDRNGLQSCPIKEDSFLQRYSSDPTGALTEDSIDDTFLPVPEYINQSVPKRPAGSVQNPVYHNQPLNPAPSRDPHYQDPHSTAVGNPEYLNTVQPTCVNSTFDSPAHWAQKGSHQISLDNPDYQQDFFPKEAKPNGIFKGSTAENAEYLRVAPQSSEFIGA

Ba/F3 EGFR NPH ins cells = test: Cell proliferation, Ba/F3 EGFR NPH ins (CellTiter-Glo, 72 h); details: Ba/F3 EGFR, 72 h;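 also: IL3-independent cells carrying constitutively phosphorylated EGFR, compound dilution series, viable cells quantified by ATP luminescence, growth relative to DMSO wells after subtracting pre-dosing (day 0) baseline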
Ba/F3 EGFR ASV ins cells = test: Cell proliferation, Ba/F3 EGFR ASV ins (CellTiter-Glo, 72 h); details: Ba/F3 EGFR, 72 h;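 also: IL3-independent Ba/F3 cells transduced with EGFR V769_D770insASV, cellular ATP luminescence after compound exposure, growth relative to DMSO control with the day-0 baseline reading subtracted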
[4] = test system: NCI-H1975 EGFR L858R/T790M cells; test: Cell proliferation, NCI-H1975 EGFR L858R/T790M (CellTiter-Glo, 72 h); details: Homo sapiens, NCI-H1975, 72 h;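 also: viable cells quantified by luciferase-based ATP luminescence, proliferation expressed relative to DMSO-treated wells (100%) after subtracting a parallel plate read at the time of dosing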
Description: WT or mutant cells were seeded in 384 well plates at appropriate concentrations with corresponding growth media supplemented with 10% FBS, for each experiment, identical plates were prepared in duplicates, and the plates were incubated overnight. On the next day, one of each duplicated plates was dosed with tested compounds at a series of concentrations, and another one of the duplicated plate was analysied for G0 value. The dosed plates were incubate for another 72 h at 37° C. with 5% CO2 and the number of viable cells in each well of the G0 plates or the dosed plates were measured by CellTiter-Glo® Luminescent Cell Viability Assay (Promega). This assay is a luminescent method for determining the number viable cells through measurement of cellular ATP concentration by detection of luciferase activity. Detection reagents (15 µl) was dispensed into per well, and the plates were incubate for 30 min at room temperature. Then, the luminescence in each well was measured using the Envision plate reader (PerkinElmer). The percentage of proliferation was calculated based on the formula: %Proliferation= 100 × (G3 value of sample well-Go value)/(G3 value of DMSO control-Go value).

[5] = test system: Her2 exon 20 insertion YVMA transduced NIH-3T3 cell line; test: Cell proliferation, Her2 YVMAins NIH-3T3 (CellTiter-Glo, 72 h); details: Mus musculus, NIH3T3, 72 h, Her2 YVMAins cells, 72 h proliferation; read-out: Her2 Exon 20 YVMA insertion GI50;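 also: viable cells quantified by ATP luminescence, growth over a day-zero baseline plate expressed as percent of DMSO control growth, compound dilution series in 10% FBS medium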
WT EGFR cell line A-431 = test: Cell proliferation, WT EGFR A431 (CellTiter-Glo, 72 h); details: Homo sapiens, A-431, 72 h;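 also: proliferation from a luminescent ATP viability signal, expressed as 100 × (treated minus time-zero plate) over (DMSO control minus time-zero plate), cells grown with 10% FBS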
OCI-LY-10 cells = test: BTK (wt) cell proliferation, OCI-LY-10 (CellTiter-Glo, 72 h); details: Homo sapiens, OCI-Ly10, 72 h, OCI-LY-10 cells, 72 h, CellTiter-Glo; read-out: BTK WT OCI-LY-10 GI50;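 also: viable cells quantified via cellular ATP luminescence, proliferation given as percent of DMSO control after subtracting a duplicate plate read at time of dosing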
TMD-8 cells = test: BTK (wt) cell proliferation, TMD-8 (CellTiter-Glo, 72 h); details: Homo sapiens, TMD8, 72 h, TMD-8 cells, 72 h, CellTiter-Glo; read-out: BTK WT TMD-8 GI50;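 also: viable cells quantified by ATP-based luminescence, proliferation expressed as percent of DMSO control after subtracting a time-zero baseline plate read at dosing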
Ri-1 cells = test: BTK (wt) cell proliferation, Ri-1 (CellTiter-Glo, 72 h); details: Ri-1, 72 h, Ri-1 cells, 72 h, CellTiter-Glo; read-out: BTK WT Ri-1 GI50;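 also: viable cells quantified as cellular ATP luminescence, proliferation normalized to a time-zero plate and the DMSO control, compounds tested across a dilution series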
DB cells = test: BTK (wt) cell proliferation, DB (CellTiter-Glo, 72 h); details: Homo sapiens, DB, DB cells, CellTiter-Glo, read-out: Non-BCR activated DB GI50;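 also: DB cells in 384-well plates given a dilution series of compound, viable cells read by ATP luminescence, growth expressed versus DMSO control after subtracting a time-zero plate reading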
Description: OCI-LY-10 at 3,750 cells/well, TMD-8 and Ri-1 at 2,000 cells/well, and DB at 1,250 cells/well, respectively, were sorted into 384-well plates in RPMI1640 medium with 10% FBS. After overnight incubation, all cells were incubated with compound at a series of concentrations. Meanwhile, a duplicated plate of each cell line was prepared for measuring G0 value. The dosed plates were further incubated for 72 hours and the number of viable cells was measured by CellTiter-Glo® Luminescent Cell Viability Assay (Promega), a luminescent method for determining the number of viable cells through measurement of cellular ATP concentration using Envision plate reader (PerkinElmer). The percentage of proliferation was calculated as: % Proliferation = 100 × (G3 value of sample well - G0 value)/(G3 value of DMSO control - G0 value).

[6] = Ba/F3 EGFR NPH ins, 72 h proliferation, read-out: EGFR Exon20 NPH insertion GI50
[7] = Ba/F3 EGFR ASV ins, 72 h proliferation, read-out: EGFR Exon20 ASV insertion GI50
[8] = NCI-H1975, 72 h proliferation, read-out: EGFR L858R and T790M mutation GI50
[9] = A431, 72 h proliferation, read-out: EGFR WT A431 GI50

Structure (SMILES)	pIC50 [1]	pIC50 [2]	pIC50 (EGFR L858R&T790M)	pIC50 [3]	pIC50 (WT EGFR)	GI50 (Ba/F3 EGFR NPH ins cells; [6]) [nM]	GI50 (Ba/F3 EGFR ASV ins cells; [7]) [nM]	GI50 [4, 8] [nM]	GI50 [5] [nM]	GI50 (WT EGFR cell line A-431; [9]) [nM]	GI50 (OCI-LY-10 cells) [nM]	GI50 (TMD-8 cells) [nM]	GI50 (Ri-1 cells) [nM]	GI50 (DB cells) [nM]	GI50 (Ba/F3 EGFR NPH ins cells; read-out: EGFR Exon20 NPH insertion GI50 (nM)) [nM]	GI50 (Ba/F3 EGFR ASV ins cells; read-out: EGFR Exon20 ASV insertion GI50 (nM)) [nM]	GI50 ([4]; read-out: EGFR L858R and T790M mutation GI50 (nM)) [nM]	GI50 (WT EGFR cell line A-431; read-out: EGFR WT A431 GI50 (nM)) [nM]
C=CC(=O)Nc1cc(Nc2ncnc(Nc3ccccc3C3(O)CC3)n2)c(OC)cc1N(C)CCN(C)C [Compound 2, N-(2-((2-(dimethylamino)ethyl)(methyl)amino)-5-(4-(2-(1-hydroxycyclopropyl)phenylamino)-1,3,5-triazin-2-ylamino)-4-methoxyphenyl)acrylamide]	7.71	7.87	9.30	8.34	7.67	56	42.2	13.9	45.2	26.6	134	130	86.6	> 3000	–	–	–	–
C=CC(=O)Nc1cc(Nc2ncnc(Nc3cnc(F)cc3C(C)(C)O)n2)c(OC)cc1N(C)CCN(C)C [Compound 3, N-(2-((2-(dimethylamino)ethyl)(methyl)amino)-5-(4-(6-fluoro-4-(2-hydroxypropan-2-yl)pyridin-3-ylamino)-1,3,5-triazin-2-ylamino)-4-methoxyphenyl) acrylamide]	6.53	7.03	8.51	7.29	6.99	307	252	55.6	183	69.3	2510	635	> 3000	> 3000	–	–	–	–
C=CC(=O)Nc1cc(Nc2ncnc(Nc3cc(F)c(F)cc3C(C)(C)O)n2)c(OC)cc1N(C)CCN(C)C [Compound 4, N-(5-(4-(4,5-difluoro-2-(2-hydroxypropan-2-yl)phenylamino)-1,3,5-triazin-2-ylamino)-2-((2-(dimethylamino)ethyl)(methyl)amino)-4-methoxyphenyl)ac rylamide]	8.09	8.21	9.40	8.26	7.95	32.2	20.7	6.9	31	15.7	8.9	77.1	61.4	> 3000	–	–	–	–
C=CC(=O)Nc1cc(Nc2ncnc(Nc3cccnc3C(C)(C)O)n2)c(OC)cc1N(C)CCN(C)C [Compound 8, N-(2-((2-(dimethylamino)ethyl)(methyl)amino)-5-(4-(2-(2-hydroxypropan-2-yl)pyridin-3-ylamino)-1,3,5-triazin-2-ylamino)-4-methoxyphenyl)acrylamide]	7.04	6.93	8.54	7.59	7.37	258	250	32.4	353	99.8	88	1780	> 3000	> 3000	–	–	–	–
C=CC(=O)Nc1cc(Nc2ncnc(Nc3ccc(F)c(F)c3C(C)(C)O)n2)c(OC)cc1N(C)CCN(C)C [Compound 9, N-(5-(4-(3,4-difluoro-2-(2-hydroxypropan-2-yl)phenylamino)-1,3,5-triazin-2-ylamino)-2-((2-(dimethylamino)ethyl)(methyl)amino)-4-methoxyphenyl)ac rylamide]	7.29	7.20	8.70	7.86	6.88	180	191	44.6	156	83.1	309	551	700	> 3000	–	–	–	–
C=CC(=O)Nc1cc(Nc2ncnc(Nc3cc(F)c(Cl)cc3C(C)(C)O)n2)c(OC)cc1N(C)CCN(C)C [Compound 12, N-(5-(4-(4-chloro-5-fluoro-2-(2-hydroxypropan-2-yl)phenylamino)-1,3,5-triazin-2-ylamino)-2-((2-(dimethylamino)ethyl)(methyl)amino)-4-methoxyphenyl)acrylamide]	7.97	8.19	9.52	8.47	8.12	21.5	25.3	8.4	24.5	14.2	27.8	34.5	51.2	> 3000	–	–	–	–
C=CC(=O)Nc1cc(Nc2ncnc(Nc3ccc(Cl)c(F)c3C(C)(C)O)n2)c(OC)cc1N(C)CCN(C)C [Compound 14, N-(5-(4-(4-chloro-3-fluoro-2-(2-hydroxypropan-2-yl)phenylamino)-1,3,5-triazin-2-ylamino)-2-((2-(dimethylamino)ethyl)(methyl)amino)-4-methoxyphenyl)acrylamide]	7.42	7.58	8.96	7.80	7.50	55.4	84.1	18	58.7	29.1	155	102	136	> 3000	–	–	–	–
C=CC(=O)Nc1cc(Nc2nccc(Nc3cc(Cl)c(F)cc3C(C)(C)O)n2)c(OC)cc1N1C[C@H](N(C)C)C2(CC2)C1 [Compound 83, (R)-N-(5-(4-(5-chloro-4-fluoro-2-(2-hydroxypropan-2-yl)phenylamino)pyrimidin-2-ylamino)-2-(7-(dimethylamino)-5-azaspiro[2.4]heptan-5-yl)-4-methoxyphenyl) acrylamide formic acid salt]	6.62	6.81	8.30	7.06	6.00	–	–	–	678	–	–	–	–	–	300	340	38.9	252
